The text below walks through data of patent publication US11739070B2, “C5A receptor modulators” (IDORSIA PHARMACEUTICALS LTD, priority 2018, dated 2023).

In the assay the target is T1, C5AR1 (Homo sapiens, UniProt P21730).
T1 construct: host or cells: CHO-K1
T1 sequence (P21730 1-350): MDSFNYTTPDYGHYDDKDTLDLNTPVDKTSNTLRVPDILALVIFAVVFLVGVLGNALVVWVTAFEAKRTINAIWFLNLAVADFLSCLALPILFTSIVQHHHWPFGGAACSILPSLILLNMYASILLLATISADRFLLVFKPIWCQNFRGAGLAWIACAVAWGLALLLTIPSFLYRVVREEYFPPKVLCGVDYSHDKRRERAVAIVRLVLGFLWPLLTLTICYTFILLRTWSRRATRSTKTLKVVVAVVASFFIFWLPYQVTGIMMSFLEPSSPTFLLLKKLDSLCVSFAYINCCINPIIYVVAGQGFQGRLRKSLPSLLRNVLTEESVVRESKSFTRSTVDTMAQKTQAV
In words: hC5a DISCO IC50 assay (PathHunter beta-arrestin, antagonist mode). As to conditions: CHO-K1 C5AR1 beta-arrestin cell line; antagonist vs 1-10 nM C5a agonist; geometric mean values; read-out: C5aR IC50. Format: cell-based. The protocol:
II. Biological Assays In Vitro Assay hC5a DISCO IC50 Assay
5 μl Antagonist at 6-fold end concentration or DMSO control is added to assay medium and subsequently 5 μl 1-10 nM C5a agonist at 6 fold end concentration. Cells are centrifuged for 1 min at 1000 rpm and incubated for 1.5 hour in at 37° C. Plates are equilibrated at room temperature for several minutes before adding 12 μl/well Detection Reagent (PathHunter Detection Kit, DiscoverX, Cat #93-0001). Plates are centrifuged for 1 min at 1000 rpm and incubated for 45 minutes at RT before being measured on a Fluostar Optima, BMG Labtech. IC50 values are calculated from a serial dilution range of antagonist using inhouse software and given in nmol/l.
The calculated IC50 values may fluctuate depending on the daily cellular assay performance. Fluctuations of this kind are known to those skilled in the art. Average IC50 values from several measurements are given as geometric mean values.
Take `COc1cccc2c1n(Cc1ncccc1OC(C)C)c(=O)n2[C@@H]1CCN(c2c(C)cccc2F)C1` [Example 182, 1-[(R)-1-(2-Fluoro-6-methyl-phenyl)-pyrrolidin-3-yl]-3-(3-isopropoxy-pyridin-2-ylmethyl)-4-methoxy-1,3-dihydro-benzoimidazol-2-one]: the IC50 was found to be 9 nM. For the compound `COc1cccnc1N1CCC(n2c(=O)n(Cc3ccccc3C(F)(F)F)c3c(OC)cccc32)CC1` [Example 233, 4-Methoxy-1-(3′-methoxy-3,4,5,6-tetrahydro-2H-[1,2′]bipyridinyl-4-yl)-3-(2-trifluoromethyl-benzyl)-1,3-dihydro-benzoimidazol-2-one], the concentration for half-maximal inhibition (IC50) amounted to 195 nM. Turning to `COc1cccc2c1n(Cc1nccnc1C(F)(F)F)c(=O)n2C1CCN(c2c(C)cccc2F)CC1` [Example 168, 1-[1-(2-Fluoro-6-methyl-phenyl)-piperidin-4-yl]-4-methoxy-3-(3-trifluoromethyl-pyrazin-2-ylmethyl)-1,3-dihydro-benzoimidazol-2-one], the IC50 was 10 nM. As for `COc1cccc2c1n(Cc1ccccc1C(F)(F)F)c(=O)n2C1CC2CC1CN2C(=O)OC(C)(C)C` (stereo not drawn) [Example 188, 5-[4-Methoxy-2-oxo-3-(2-trifluoromethyl-benzyl)-2,3-dihydro-benzoimidazol-1-yl]-2-aza-bicyclo[2.2.1]heptane-2-carboxylic acid tert-butyl ester], the IC50 was found to be 313 nM. With `COc1cccc2c1n(Cc1ccccc1C(F)(F)F)c(=O)n2C1CCN(c2ccccc2OC2CCC2)CC1` [Example 241, 1-[1-(2-Cyclobutoxy-phenyl)-piperidin-4-yl]-4-methoxy-3-(2-trifluoromethyl-benzyl)-1,3-dihydro-benzoimidazol-2-one], the IC50 was determined as 36 nM. `COc1cccc2c1n(Cc1ccccc1C(F)(F)F)c(=O)n2[C@@H]1CCN(c2c(F)cccc2N2CCOCC2)C1` [Example 161, 1-[(R)-1-(2-Fluoro-6-morpholin-4-yl-phenyl)-pyrrolidin-3-yl]-4-methoxy-3-(2-trifluoromethyl-benzyl)-1,3-dihydro-benzoimidazol-2-one]: the concentration for half-maximal inhibition (IC50) is 69 nM. Consider `COc1cccc2c1n(Cc1ccncc1C(F)(F)F)c(=O)n2C1CCN(c2c(C)cccc2C)CC1` [Example 73, 1-[1-(2,6-Dimethyl-phenyl)-piperidin-4-yl]-4-methoxy-3-(3-trifluoromethyl-pyridin-4-ylmethyl)-1,3-dihydro-benzoimidazol-2-one], for which the IC50 is 272 nM. Next, `Cc1cccc(F)c1N1CC[C@@H](n2c(=O)n(Cc3ccccc3C(F)(F)F)c3c(OCCO)cccc32)C1` [Example 150, 1-[(R)-1-(2-Fluoro-6-methyl-phenyl)-pyrrolidin-3-yl]-4-(2-hydroxy-ethoxy)-3-(2-trifluoromethyl-benzyl)-1,3-dihydro-benzoimidazol-2-one]: 11 nM. As to `COc1cccc2c1n(Cc1ccccc1C(F)(F)F)c(=O)n2C1CCN(c2c(C)cccc2C)CC1` [Example 2, 1-[1-(2,6-Dimethyl-phenyl)-piperidin-4-yl]-4-methoxy-3-(2-trifluoromethyl-benzyl)-1,3-dihydro-benzoimidazol-2-one], the IC50 was determined as 18 nM. Next, `COc1nccnc1Cn1c(=O)n([C@@H]2CCN(c3c(C)cccc3F)C2)c2cccc(OC)c21` [Example 169, 1-[(R)-1-(2-Fluoro-6-methyl-phenyl)-pyrrolidin-3-yl]-4-methoxy-3-(3-methoxy-pyrazin-2-ylmethyl)-1,3-dihydro-benzoimidazol-2-one]: 17 nM; `COc1cccc2c1n(Cc1ccccc1C(F)(F)F)c(=O)n2C1CCN(c2c(C)ccnc2C#N)CC1` [Example 246, 4-[4-Methoxy-2-oxo-3-(2-trifluoromethyl-benzyl)-2,3-dihydro-benzoimidazol-1-yl]-4′-methyl-3,4,5,6-tetrahydro-2H-[1,3′]bipyridinyl-2′-carbonitrile]: 39 nM. `COc1cccc2c1n(Cc1csc(C(F)(F)F)n1)c(=O)n2[C@@H]1CCN(c2c(C)cccc2F)C1` [Example 218, 1-[(R)-1-(2-Fluoro-6-methyl-phenyl)-pyrrolidin-3-yl]-4-methoxy-3-(2-trifluoromethyl-thiazol-4-ylmethyl)-1,3-dihydro-benzoimidazol-2-one]: the half-inhibitory concentration (IC50) came to 346 nM.

Consider `COCCNc1nccc2c1n(Cc1ccccc1C(F)(F)F)c(=O)n2[C@@H]1CCN(c2c(C)cccc2F)C1` [Example 207, 1-[(R)-1-(2-Fluoro-6-methyl-phenyl)-pyrrolidin-3-yl]-4-(2-methoxy-ethylamino)-3-(2-trifluoromethyl-benzyl)-1,3-dihydro-imidazo[4,5-c]pyridin-2-one], for which the IC50 came to 508 nM.

For the compound `COc1cccc2c1n(Cc1ccccc1C(F)(F)F)c(=O)n2C1CCN(c2cc(C3CC3)nn2C)CC1` [Example 21, 1-[1-(5-Cyclopropyl-2-methyl-2H-pyrazol-3-yl)-piperidin-4-yl]-4-methoxy-3-(2-trifluoromethyl-benzyl)-1,3-dihydro-benzoimidazol-2-one], the half-inhibitory concentration (IC50) was 3440 nM. The figure for `COc1ncnc2c1n(Cc1ccccc1C(F)(F)F)c(=O)n2[C@@H]1CCN(c2c(F)cccc2C#N)C1` [Example 104, 3-Fluoro-2-{(R)-3-[6-methoxy-8-oxo-7-(2-trifluoromethyl-benzyl)-7,8-dihydro-purin-9-yl]-pyrrolidin-1-yl}-benzonitrile] is 863 nM; for `COc1ccccc1Cn1c(=O)n([C@@H]2CCN(c3c(C)cccc3F)C2)c2cccc(OC)c21` [Example 110, 1-[(R)-1-(2-Fluoro-6-methyl-phenyl)-pyrrolidin-3-yl]-4-methoxy-3-(2-methoxy-benzyl)-1,3-dihydro-benzoimidazol-2-one] it is 6 nM.

As to `COc1cccc2c1n(Cc1ccccc1C(F)(F)F)c(=O)n2[C@H]1CN(C(=O)OC(C)(C)C)C[C@H]1C` (relative stereo) [Example 199, (3R*,4R*)-3-[4-Methoxy-2-oxo-3-(2-trifluoromethyl-benzyl)-2,3-dihydro-benzoimidazol-1-yl]-4-methyl-pyrrolidine-1-carboxylic acid tert-butyl ester], the IC50 is 119 nM. Consider `Cc1cccc(F)c1N1CC[C@@H](n2c(=O)n(Cc3ccccc3C(F)(F)F)c3c(OC4COC4)cccc32)C1` [Example 149, 1-[(R)-1-(2-Fluoro-6-methyl-phenyl)-pyrrolidin-3-yl]-4-(oxetan-3-yloxy)-3-(2-trifluoromethyl-benzyl)-1,3-dihydro-benzoimidazol-2-one], for which the IC50 worked out at 14 nM. `COc1cccc2c1n(Cc1nccnc1OC(C)C)c(=O)n2C1CCN(c2c(C)cccc2F)CC1` [Example 178, 1-[1-(2-Fluoro-6-methyl-phenyl)-piperidin-4-yl]-3-(3-isopropoxy-pyrazin-2-ylmethyl)-4-methoxy-1,3-dihydro-benzoimidazol-2-one]: the 50% inhibitory concentration (IC50) came to 49 nM. In the case of `COc1cccc2c1n(Cc1ccccc1C(F)(F)F)c(=O)n2C1CN(C(=O)OC(C)(C)C)C1` [Example 213, 3-[4-Methoxy-2-oxo-3-(2-trifluoromethyl-benzyl)-2,3-dihydro-benzoimidazol-1-yl]-azetidine-1-carboxylic acid tert-butyl ester], the 50% inhibitory concentration (IC50) came to 469 nM.

As for `COc1cccc2c1n(Cc1ncccc1OC(C)C)c(=O)n2C1CCN(c2c(C)cccc2F)CC1` [Example 183, 1-[1-(2-Fluoro-6-methyl-phenyl)-piperidin-4-yl]-3-(3-isopropoxy-pyridin-2-ylmethyl)-4-methoxy-1,3-dihydro-benzoimidazol-2-one], the IC50 is 14 nM.
